Literature values, collected in patent US20170281506A1, “COMPOSITION FOR TOPICAL APPLICATION FOR PREVENTING HAIR LOSS AND STIMULATING HAIR GROWTH” (priority 2011, published 2017).

Test system: men
Settings: oral, treated constantly for two years

Q: With `CC(C)(C)NC(=O)[C@H]1CC[C@H]2[C@@H]3CC[C@H]4NC(=O)C=C[C@]4(C)[C@H]3CC[C@]12C` [Finasteride, finasteride] as the molecule, how does the “participants who maintained or increased the number of hairs after the treatment” value read?
A: 83%

Q: What about the “participants who showed no hair loss” value of the same molecule?
A: 17%
